Experimental data published in publication PMC8947478, “Novel, First-in-Human, Oral PCLX-001 Treatment in a Patient with Relapsed Diffuse Large B-Cell Lymphoma” (Current Oncology, 2022).
“Also recorded” adds a separate entry of the source. Like-named read-outs stand apart in the source and are kept apart here.

What was measured:
[1] = system: Bruton tyrosine kinase (BTK); design: method as in PMID 33093447; settings: models of human lymphoma; cited from earlier work
[2] = system: relapsed diffuse large B-cell lymphoma; assay: Efficacy assessment by imaging (Lugano classification criteria); type: in vivo, human; settings: patient, 20 mg oral daily, CT on day 29
Source text: The subject had baseline cross-sectional and PET imaging. Protocol-defined imaging was CT every 2 cycles and PET every 6 cycles or as clinically indicated. Evaluation of response was by the Lugano classification criteria for the evaluation of non-Hodgkin lymphoma.

[3] = system: hematologic and lymphoma cell lines; design: method as in PMID 33093447; settings: tissue culture; cited from earlier work
[4] = animal models; cited from earlier work
NMT2 = molecular target: T1, NMT2 (Homo sapiens, UniProt O60551); assay: Flow cytometry of intracellular NMT2 level in PBMC populations; type: in vivo
T1 construct: homemade monoclonal antibodies AF-700-NMT1(clone 6F8D5) and APC-NMT2 (clone 6C5E8); endogenous in cells; host or cells: patient peripheral blood mononuclear cells (CD4+, CD8+, CD19+, CD14+ populations)
T1 sequence (O60551 1-498): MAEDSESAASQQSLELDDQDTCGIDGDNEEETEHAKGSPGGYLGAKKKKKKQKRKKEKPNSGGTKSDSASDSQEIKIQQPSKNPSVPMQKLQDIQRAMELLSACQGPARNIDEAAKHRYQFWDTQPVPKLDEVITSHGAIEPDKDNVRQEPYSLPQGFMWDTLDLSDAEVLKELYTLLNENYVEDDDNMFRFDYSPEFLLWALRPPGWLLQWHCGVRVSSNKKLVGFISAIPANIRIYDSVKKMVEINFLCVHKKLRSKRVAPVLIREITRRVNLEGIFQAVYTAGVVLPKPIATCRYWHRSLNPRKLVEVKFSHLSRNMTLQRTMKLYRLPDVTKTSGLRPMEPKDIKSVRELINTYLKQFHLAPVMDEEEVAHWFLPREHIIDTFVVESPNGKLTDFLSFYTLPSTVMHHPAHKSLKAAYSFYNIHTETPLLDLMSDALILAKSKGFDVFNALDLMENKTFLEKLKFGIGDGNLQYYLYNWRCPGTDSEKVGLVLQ
Description: (§1) Peripheral blood was collected from the patient at each sampling point (Screen, Day 1, and Day 28 of treatment) by venipuncture according to normal phlebotomy practice in 2 × 8 mL BD Vacutainer® CPT™ Tubes. Samples were immediately mixed by gentle inversion 10 times and process for PBMC isolation within 1 h. After centrifugation (1800× g for 20 min) at room temperature (18–25 °C) in a swinging bucket rotor (swing-out head), the mononuclear cells and platelets (referred to as PBMC) were carefully collected as the whitish layer just above the polyester gel and under the plasma layer, transferred into 9 mL freezing media (8 mL Fetal Bovine Serum and 1 mL DMSO), and stored at −70 °C or below until flow cytometry analysis.
(§2) PBMC were recovered by centrifugation (400× g for 5 min), washed in RPMI culture media, resuspended in PBS, and prepared for FACS analysis. PBMC were first labeled with Zombie Aqua™ Fixable Viability kit (1/100, 20 min at 4 °C; BioLegend, San Diego, CA, USA) for exclusion of dead cells, blocked with Human TruStain FcX Fc receptor blocking solution (5/100, 10 min at room temperature, BioLegend), then stained for extracellular markers using antibodies ECD-CD3 (clone UCHT1) and PE-Cy7-CD4 (clone SFCI12T4D11) from Beckman Coulter (Missaugua, ON, Canada) PerCp-Cy5.5-CD8 (SK-1) and BV-785CD19 (clone HIB19) from BioLegend, and PE-CF594-CD14 (clone MΦPG) from BD Bioscience (Mississauga, ON, Canada) for 20 min at 4 °C. The cells were then fixed and permeabilized using the eBioscience Intracellular Fixation and Permeabilization buffer set (Invitrogen, Mississauga, ON, Canada) and stained for intracellular markers AF-488-HGAL (clone 1H1-A7, eBioscience), AF-488-Lyn (Lyn-01, ab1890, Abcam, Cambridge, UK), and homemade monoclonal antibodies AF-700-NMT1(clone 6F8D5) and APC-NMT2 (clone 6C5E8), as previously described, in parallel with relevant isotype controls for at least 30 min at 4 °C. Prior to applying in the test, intracellular antibodies were first labeled with different fluorochromes using Lightning-Link conjugation kits (Abcam) and titrated to achieve the best concentration. Finally, samples were acquired on a Fortessa X-20 flow cytometer (BD Bioscences, Faculty of Medicine and Dentistry Flow Cytometry Facility, University of Alberta). Data were analyzed using FlowJo software (TreeStar, Ashland, OR, USA, version 10.8).

[5] = cited from earlier work
hERG = settings: preclinical testing; cited from earlier work
HGAL [6] = assay: Flow cytometry of intracellular HGAL level in PBMC populations; type: in vivo, human
Description: as §1, §2

HGAL [7] = system: HGAL; design: method as in PMID 33093447; settings: multiple Burkitt Lymphoma and Diffuse Large B cell lymphoma cell lines; cited from earlier work
[8] = Pharmacokinetic analysis of plasma after oral PCLX-001 (UHPLC-MS, two-compartment model); type: in vivo, human; settings: patient
Description: The primary pharmacokinetic analysis endpoints were:
Tmax is the time at which the maximum plasma concentration of PCLX-001 is achieved.
Cmax is the maximum plasma concentration of PCLX-001.
The patient was dosed with oral doses of PCLX-001 20 mg. After dosing, the blood samples (3 mL volume) were serially collected into heparinized tubes from a right forearm butterfly cannula. All blood fluid specimens were frozen and later assayed using a validated UHPLC-MS detection method.
PK Solver 2.0 freeware (https://www.boomer.org/boomer/software/pksolver.zip; accessed 26 November 2021) was used to determine the single dose pharmacokinetic parameters using a two-compartment model. The terminal phase rate constant (λz) was estimated by applying exponential linear regression to the concentrations in the terminal phase, and the apparent terminal half-life (t 1/2) was estimated as 0.693/λz. The area under the concentration (AUC) vs. time curve from the time of injection to the last (Clast) measured concentration (AUC0-tlast) was calculated. […] Oral body clearance (CLoral) was calculated as the ratio of the dose to the AUC0–∞. The area under the first moment concentration vs. time curve (AUMC) was estimated as the sum of the area under the C × t vs. t curve from time zero to Clast, plus the ratios of Clast × t/λz and Clast/λz 2. The mean residence time (MRT) was calculated as the ratio of AUMC to AUC0–∞). The apparent volume of distribution of steady-state (Vdss) was calculated as the product of CL × MRT.

Lyn [9] = assay: Flow cytometry of intracellular Lyn level in PBMC populations; type: in vivo, human
Description: as §1, §2

[10] = system: human cancers grown in immunodeficient mice; settings: cited from earlier work
[11] = Toxicity assessment in phase I trial (CTCAE version 5.0, DLT); type: in vivo, human; settings: patient, 20 mg oral daily
Description: The subject was assessed for toxicity using daily diary entries, clinical assessments at baseline, day 8, day 15, day 22, and day 28. Dose-limiting toxicities (DLTs) were defined as the following cycle 1 CTCAE version 5.0 adverse events: Gr 4 platelets, Gr ≥ 3 platelets with bleeding and/or transfusions, Gr 4 ANC for ≥ 7 days, Gr ≥ 3 febrile neutropenia, and Gr ≥ 3 non-hematological toxicity.

Lyn [12] = system: Lyn; design: method as in PMID 33093447; settings: multiple Burkitt Lymphoma and Diffuse Large B cell lymphoma cell lines; cited from earlier work
kinase = system: kinase; design: method as in PMID 33093447; settings: KINOMEscan; cited from earlier work
[13] = system: T cells, B cells, and monocyte population; assay: Flow cytometry of live PBMC populations in the treated patient; type: in vivo, human
Description: as §1, §2

[14] = 20 mg daily, 28 days, all populations
[15] = 20 mg oral, Day 1 single dose, plasma

Cc1c(NS(=O)(=O)c2c(Cl)cc(-c3ccnc(N4CCNCC4)c3)cc2Cl)c(CC(C)C)nn1C [PCLX-001, 2,6-dichloro-N-(3-isobutyl-1,5-dimethyl-1H-pyrazol-4-yl)-4-(2-(piperazin-1-yl)pyridin-4-yl)benzenesulfonamide]
BTK modification and downstream signaling [1]: profoundly inhibited | response of lymphoma (Lugano classification criteria) [2]: disease progression; also recorded: progression of the volume of lymphoma | inhibition of hematologic and lymphoma cell lines [3]: markedly inhibits | oral bioavailability [4]: complete oral bioavailability | change of NMT2 protein level in circulating blood mononuclear cells (NMT2; 20 mg daily, 28 days, all cell populations with the exception of monocytes): no clear change; also recorded: very stable | NMT2 intracellular level, % of population ± CV, Day 28 (NMT2; CD4+ T cells, untreated: Screening 22.8, Day 1 25.7): 35.3 ± 0.36% | NMT2 intracellular level, % of population ± CV, Day 28 (NMT2; CD8+ T cells, untreated: Screening 11, Day 1 12.7): 18.7 ± 0.33% | NMT2 intracellular level, % of population ± CV, Day 28 (NMT2; CD14+ Monocytes, untreated: Screening 6.21, Day 1 6.7): 11.7 ± 0.17% | NMT2 intracellular level, % of population ± CV, Day 28 (NMT2; CD19+ B cells, untreated: Screening 31.8, Day 1 29): 33.3 ± 0.24% | change of NMT2 protein level in monocytes (NMT2; end of the first cycle): increased | cardiac conduction ([5]; animal non-clinical safety testing): no cardiac conduction issues | dose-limiting toxicity in GLP non-clinical safety testing [5]: diarrhea was dose-limiting | hERG interaction (hERG): no significant hERG interaction | change of HGAL protein level in circulating blood mononuclear cells (HGAL [6]; [14]): no clear change; also recorded: no apparent trend | HGAL intracellular level, % of population ± CV, Day 28 (HGAL [6]; CD4+ T cells, untreated: Screening 12.7, Day 1 22.1): 8.6 ± 0.58% | HGAL intracellular level, % of population ± CV, Day 28 (HGAL [6]; CD8+ T cells, untreated: Screening 25, Day 1 30.3): 17 ± 0.63% | HGAL intracellular level, % of population ± CV, Day 28 (HGAL [6]; CD14+ Monocytes, untreated: Screening 83.9, Day 1 87.5): 88.3 ± 0.64% | HGAL intracellular level, % of population ± CV, Day 28 (HGAL [6]; CD19+ B cells, untreated: Screening 2.44, Day 1 11.2): 8.33 ± 0.39% | change of HGAL expression in CD14+ monocytes (HGAL [6]; after 28 days of treatment): did not decrease | HGAL protein level in vitro (HGAL [7]): significantly decreased | AUC(0-inf) ([8]; human, plasma, po, 20 mg, 20 mg oral daily, Day 15, plasma, read-out: Day 15 AUC0–∞): 2640 ng·h/mL | Cmax ([8]; human, plasma, po, 20 mg, 20 mg oral, Day 1 single dose, plasma, read-out: Cmax): 278 ng/mL | AUC(0-inf) ([8]; human, plasma, po, 20 mg, 20 mg oral, first dose (Day 1), plasma, read-out: AUC0–∞): 2360 ng·h/mL | half-life ([8]; human, plasma, po, 20 mg, 20 mg oral, single dose, read-out: T ½ (apparent terminal half-life) (converted)): 16 h | MRT ([8]; human, plasma, 20 mg oral, single dose): 18.6 h | Tmax ([8]; human, 20 mg oral, Day 1 single dose, plasma): 1.1 h | Day 22 pre-dose plasma concentration ([8]; 20 mg oral daily, Day 22 pre-dose (trough)): 51.4 ng/mL | drug accumulation in plasma after repeated daily dosing ([8]; 20 mg oral daily, first dose AUC vs day 15 AUC): without systemic accumulation of drug by day 15; also recorded: no evidence of drug accumulation | AUC0-tlast [8, 15]: 1701.33 ng·h/mL | Cmax [8, 15]: 278.23 ng/mL | AUMC ([8]; 20 mg oral, single dose): 43,883.76 ng/mL.h^2 | CLoral ([8]; 20 mg oral, single dose): 8.4 L/h | T ½ (apparent terminal half-life) ([8]; 20 mg oral, single dose): 16.42 h | Vdss ([8]; 20 mg oral, single dose): 156.49 L | change of Lyn protein level in circulating blood mononuclear cells (Lyn [9]; [14]): no clear change; also recorded: no apparent trend; also recorded: no significant decrease | Lyn intracellular level, % of population ± CV, Day 28 (Lyn [9]; CD4+ T cells, untreated: Screening 13.7, Day 1 20): 28.7 ± 0.37% | Lyn intracellular level, % of population ± CV, Day 28 (Lyn [9]; CD8+ T cells, untreated: Screening 17.6, Day 1 25.8): 33.3 ± 0.31% | Lyn intracellular level, % of population ± CV, Day 28 (Lyn [9]; CD14+ Monocytes, untreated: Screening 51.4, Day 1 40.5): 66.6 ± 0.59% | Lyn intracellular level, % of population ± CV, Day 28 (Lyn [9]; CD19+ B cells, untreated: Screening 8.33, Day 1 12.4): 12.1 ± 0.15% | response in solid cancers [10]: tumour responses | response of human cancers grown in immunodeficient mice [10]: complete remissions | dose-limiting toxicities ([11]; 28-day cycle): did not experience any dose-limiting toxicities; also recorded: no protocol-defined dose-limiting toxicities | hematopoietic profile and biochemistry ([11]; throughout the trial): remained normal; also recorded: no evidence of toxicity to hematopoietic function, liver function, or kidney function | Lyn protein level in vitro (Lyn [12]): significantly decreased | off-target kinase inhibition (kinase): no significant off-target kinase inhibition | effect on live T cell, B cell and monocyte populations ([13]; 28 days of PCLX-001 treatment, 20 mg daily): only marginally affected | CD19+ B cells, % of population ± CV, Day 28 ([13]; live PBMC, 28 days of 20 mg daily, untreated: Screening 0.71, Day 1 1.18): 0.59 ± 0.50% | CD14+ monocytes, % of population ± CV, Day 28 ([13]; live PBMC, 28 days of 20 mg daily, untreated: Screening 5.01, Day 1 14.2): 4.51 ± 0.42% | CD8+ T cells, % of population ± CV, Day 28 ([13]; live PBMC, 28 days of 20 mg daily, untreated: Screening 25.1, Day 1 23.1): 22.5 ± 0.31% | CD4+ T cells, % of population ± CV, Day 28 ([13]; live PBMC, 28 days of 20 mg daily, untreated: Screening 40.2, Day 1 42.5): 46.8 ± 0.22% | Total T cells (CD3+), % of population ± CV, Day 28 ([13]; live PBMC, 28 days of 20 mg daily, untreated: Screening 66.6, Day 1 66.7): 70.1 ± 0.50%
